Measurements taken from PubChem BioAssay (NCI).
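How tested: cells in 96-well plates exposed to compound for 48 hours at five concentrations. TGI marks complete inhibition of growth.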

Tests used:
Experiment in all cases: NCI tumour cell line growth inhibition, 48 h
HCC-2998 colon = system: HCC-2998 colon
SNB-75 CNS = system: SNB-75 CNS
K-562 leukemia = system: K-562 leukemia
OVCAR-8 ovarian = system: OVCAR-8 ovarian
PC-3 prostate = system: PC-3 prostate
LOX IMVI melanoma = system: LOX IMVI melanoma
SW-620 colon = system: SW-620 colon
NCI-H522 lung = system: NCI-H522 lung
OVCAR-5 ovarian = system: OVCAR-5 ovarian
SF-539 CNS = system: SF-539 CNS

Structure (SMILES)	TGI (HCC-2998 colon)	TGI (SNB-75 CNS)	TGI (K-562 leukemia)	TGI (OVCAR-8 ovarian)	TGI (PC-3 prostate)	TGI (LOX IMVI melanoma)	TGI (SW-620 colon)	TGI (NCI-H522 lung)	TGI (OVCAR-5 ovarian)	TGI (SF-539 CNS)
O=C(O)/C(=C\c1ccc(O)cc1)c1cccc2ccccc12	> 100 µM	> 100 µM	> 100 µM	> 100 µM	> 100 µM	> 100 µM	> 100 µM	> 100 µM	> 100 µM	–
CC(C(=O)c1ccncc1)c1ccccn1 (stereo not drawn)	> 100 µM	–	> 100 µM	> 100 µM	> 100 µM	> 100 µM	> 100 µM	> 100 µM	> 100 µM	–
Cc1cc2c(cc1C)C(=O)C1(C2)Cc2cc3c(cc2C1=O)CCC3 (stereo not drawn)	> 100 µM	> 100 µM	> 100 µM	> 100 µM	> 100 µM	–	> 100 µM	> 100 µM	> 100 µM	91.9 µM
O=C(c1cccs1)N1CCCN(C(=O)c2cccs2)C1=S	–	–	> 100 µM	> 100 µM	> 100 µM	> 100 µM	> 100 µM	–	> 100 µM	> 100 µM
COc1cc(Cc2cnc(N)nc2N)cc(OC)c1OCCCNc1ccc([N+](=O)[O-])cc1	31.4 µM	32.7 µM	> 100 µM	30.1 µM	22.3 µM	–	34.2 µM	26.3 µM	35.5 µM	26.1 µM
O=c1[nH]nc(Nc2ccccc2)c2nnn(C3CCCCC3)c12	> 100 µM	–	> 100 µM	> 100 µM	> 100 µM	> 100 µM	–	–	> 100 µM	–
COC(=O)C1CCC(=O)N1C(c1cc(OC)c(OC)c(OC)c1)c1cccc2ccccc12 (stereo not drawn)	–	> 100 µM	> 100 µM	> 100 µM	> 100 µM	> 100 µM	> 100 µM	> 100 µM	> 100 µM	> 100 µM
Cc1cc(Nc2ccc(NS(C)(=O)=O)cc2)c2c(ccc3nccc32)[nH]1	–	–	34.6 µM	> 100 µM	39.7 µM	48.4 µM	> 100 µM	23.4 µM	75.1 µM	–
NCCCNOCCCN	> 100 µM	–	> 100 µM	> 100 µM	> 100 µM	–	> 100 µM	> 100 µM	> 100 µM	> 100 µM
CCCCSC1=N/C(=C\c2ccc(N(C)C)cc2)C(=O)N1	–	> 100 µM	> 100 µM	> 100 µM	19.3 µM	> 100 µM	> 100 µM	73.9 µM	> 100 µM	63.9 µM
O=C(OC1CN2CCC1CC2)N(c1ccccc1)c1ccccc1 (stereo not drawn)	–	> 100 µM	> 100 µM	> 100 µM	> 100 µM	> 100 µM	–	> 100 µM	> 100 µM	> 100 µM
O=C1CSC(c2ccc([N+](=O)[O-])cc2)N1c1ccc(-c2ccc(-n3c(-c4ccccc4)nc4ccccc4c3=O)cc2)cc1 (stereo not drawn)	> 100 µM	–	> 100 µM	> 100 µM	> 100 µM	> 100 µM	> 100 µM	> 100 µM	> 100 µM	> 100 µM
